The text below walks through data of EP0396405A2, “Cosmetic formulations employing esterified alkoxylated polyol carriers” (ARCO CHEMICAL TECHNOLOGY INC., priority 1989, dated 1990).

The subject of this data set is Hartley albino guinea pigs. Briefly: Guinea pig maximization test (Magnusson and Kligman method), delayed contact hypersensitivity. It is filed as in vivo. Particulars: primary challenge. As for the experimental part: The potential of EAP-1 to produce delayed contact hypersensitivity in guinea pigs was evaluated by the Magnusson and Kligman Maximization Test Method.
On day zero, twenty Hartley albino guinea pigs plus ten positive control animals, and ten vehicle control animals each received six intradermal injections, i.e. duplicate injections (0.1 ml;injection) for each of the three test groups: test material (undiluted), formaldehyde (5.0% w/v in distilled water) and acetone, respectively. Each animal also received two intradermal injections of 50% v/v Freund's Complete Adjuvant (FCA) in distilled water and two injections of the respective test or control materials in the FCA/distilled water emulsion.
On day 6, these same groups of animals were exposed topically to a preparation of their respective test (50% w/v in acetone) or control material under ELASTOPLAST@ (a product of Beiersdorf, Inc.) bandage wrappings for approximately 48 hours.
On day 19, all animals were topically challenged at a naive (not previously exposed) skin site using a preparation of their respective test or control material under ELASTOPLAST@ bandage wrappings for approximately 24 hours. Naive control animals were patched identically to and concurrently with the test and positive.
On the day after removal, the sites were depilated. Later that day and again on the next day, the sites were graded for erythema (redness). […]

`C=O` [positive control, formaldehyde]: the sensitization classification result (positive control group) is on record as “extreme sensitization”. The “incidence of grade 1 responses or greater” value (positive control group (10/10)) was 100%.
